This assay deals with T1, human liver glycogen phosphorylase a (HLGPa) (Homo sapiens, UniProt P06737).
T1 construct: creating a full-length cDNA fused at the 5′ end to codons for methionine-glycine-alanine-histidine; 6xHis tag (leader Met-Gly-Ala-His6-Gly-Gly) (N); made in house; host or cells: E. coli (bacterial expression plasmid pTXK1007LTev)
T1 sequence (P06737 2-847 limits assumed): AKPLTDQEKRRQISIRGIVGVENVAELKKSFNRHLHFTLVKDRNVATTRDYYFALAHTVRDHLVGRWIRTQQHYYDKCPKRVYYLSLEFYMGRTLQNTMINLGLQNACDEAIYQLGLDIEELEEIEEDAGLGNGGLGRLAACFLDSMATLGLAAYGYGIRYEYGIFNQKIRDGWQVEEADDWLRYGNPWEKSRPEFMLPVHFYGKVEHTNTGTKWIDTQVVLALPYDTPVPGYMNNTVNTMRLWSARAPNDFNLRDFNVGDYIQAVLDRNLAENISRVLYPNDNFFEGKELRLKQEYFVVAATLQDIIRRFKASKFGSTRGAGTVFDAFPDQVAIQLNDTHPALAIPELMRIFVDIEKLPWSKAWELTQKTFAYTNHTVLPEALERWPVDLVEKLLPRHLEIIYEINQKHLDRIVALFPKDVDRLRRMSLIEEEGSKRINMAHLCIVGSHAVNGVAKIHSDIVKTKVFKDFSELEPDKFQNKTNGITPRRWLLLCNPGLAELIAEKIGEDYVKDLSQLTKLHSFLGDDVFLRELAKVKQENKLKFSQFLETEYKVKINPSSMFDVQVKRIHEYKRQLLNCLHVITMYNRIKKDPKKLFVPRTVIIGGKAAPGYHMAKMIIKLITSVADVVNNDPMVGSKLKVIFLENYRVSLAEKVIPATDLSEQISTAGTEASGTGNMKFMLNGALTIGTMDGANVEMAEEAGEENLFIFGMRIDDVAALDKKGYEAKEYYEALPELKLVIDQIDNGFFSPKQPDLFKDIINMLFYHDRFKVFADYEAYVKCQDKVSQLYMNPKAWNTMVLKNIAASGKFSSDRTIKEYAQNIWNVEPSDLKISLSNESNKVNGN
Kind of assay: Human liver glycogen phosphorylase a enzymatic activity assay (coupled, fluorescent resorufin readout, with and without 10 mM glucose). The format is biochemical.

Where [1] appears, read: human liver glycogen phosphorylase a, table does not say whether with or without 10 mM glucose.
[2] abbreviates: human liver glycogen phosphorylase a enzymatic activity assay.

Data on 20 molecules can be found in patent US20070249670A1, “Glycogen Phosphorylase Inhibitor Compounds and Pharmaceutical Compositions Thereof” (SMITHKLINE BEECHAM CORPORATION, priority 2004, published 2007).

Structures can show the parent of a compound that is named as a salt.

The term IC50 denotes the midpoint of a concentration-inhibition curve.

As for `Cc1cc(C)c(NC(=O)Nc2cc3ccccc3cc2C(=O)N[C@H](CC(=O)O)C(=O)O)c(C)c1` [Example 356, N-{[3-({[(2,4,6-trimethylphenyl)amino]carbonyl}amino)-2-naphthalenyl]carbonyl}-D-aspartic acid], under setting [1], inhibition was half-maximal at 0.1 µM (IC50).

With `Cc1cccc(C)c1NC(=O)Nc1cc2ccccc2cc1C(=O)N(CC(=O)O)C1CCCCC1` [Example 245, N-cyclohexyl-N-{[3-({[(2,6-dimethylphenyl)amino]carbonyl}amino)-2-naphthalenyl]carbonyl}glycine], the 50% inhibitory concentration (IC50) under setting [1] was 2.13 µM.

`Cc1cc(C)c(-c2ccc(C(=O)Nc3cc4ccccc4cc3C(=O)N[C@H](C(=O)O)C3CCCCC3)o2)c(C)c1` [Example 270, (2S)-cyclohexyl({[3-({[5-(2,4,6-trimethylphenyl)-2-furanyl]carbonyl}amino)-2-naphthalenyl]carbonyl}amino)ethanoic acid] registered a half-inhibitory concentration (IC50) under setting [1] of 10.3 µM.

For `COc1cc(NC(=O)Nc2c(C)cccc2Cl)c(C(=O)NC(C(=O)O)c2ccccc2)cc1OC` (centres unmarked) [Example 107, {[2-({[(2-chloro-6-methylphenyl)amino]carbonyl}amino)-4,5-dimethoxybenzoyl]amino}(phenyl)acetic acid], the concentration for half-maximal inhibition (IC50) under setting [2] turned out to be 12.2 µM.

The molecule `O=C(Nc1cc(Cl)ccc1C(=O)O)Nc1c(Cl)cccc1Cl` [Example 165, 4-Chloro-2-({[(2,6-dichlorophenyl)amino]carbonyl}amino)benzoic acid] registered an IC50 under setting [2] of 15.1 µM.

Under setting [1], `COc1ccc(-c2ccc(C(=O)N[C@@H](CC(=O)OC(C)(C)C)C(=O)OC(C)(C)C)c(NC(=O)Nc3c(C)cc(C)cc3C)c2)cc1` [Example 361, bis(1,1-dimethylethyl) N-{[4′-(methyloxy)-3-({[(2,4,6-trimethylphenyl)amino]carbonyl}amino)-4-biphenylyl]carbonyl}-L-aspartate] gave a 50% inhibitory concentration (IC50) of 6.07 µM.

`Cc1ccccc1NC(=O)Nc1cc2ccccc2cc1C(=O)N[C@@H](Cc1cnc[nH]1)C(=O)O` [Example 44, N-[3-({[(2-methylphenyl)amino]carbonyl}amino)-2-naphthoyl]-L-histidine trifluoroacetate] had an IC50 under setting [2] of 5.18 µM.

Take `CC[C@H](C)[C@H](NC(=O)c1c(NC(=O)Nc2c(C)cc(C)cc2C)sc2c1CCCC2)C(=O)O` [Example 127, N-[(2-{[(mesitylamino)carbonyl]amino}-4,5,6,7-tetrahydro-1-benzothien-3-yl)carbonyl]-L-isoleucine]: the IC50 under setting [2] stood at 18.2 µM.

As for `O=C(Nc1cc(-c2ccc(OC(F)(F)F)cc2)sc1C(=O)O)Nc1c(Cl)cccc1Cl` [Example 434, 3-({[(2,6-dichlorophenyl)amino]carbonyl}amino)-5-{4-[(trifluoromethyl)oxy]phenyl}-2-thiophenecarboxylic acid], under setting [2], the IC50 amounted to 2.12 µM.

Molecule `COc1ccc(-c2cc(C(=O)N[C@H](C(=O)O)C3CCCCC3)c(NC(=O)Nc3c(Cl)cc(OC(F)(F)F)cc3Cl)s2)cc1` [Example 427, (2S)-cyclohexyl[({2-{[({2,6-dichloro-4-[(trifluoromethyl)oxy]phenyl}amino)carbonyl]amino}-5-[4-(methyloxy)phenyl]-3-thienyl}carbonyl)amino]ethanoic acid] gave an IC50 under setting [2] of 0.027 µM.

With `O=C(O)C[C@H](NC(=O)c1ccc(F)cc1NC(=O)Nc1c(Cl)cccc1Cl)C(=O)O` [Example 364, N-{[2-({[(2,6-dichlorophenyl)amino]carbonyl}amino)-4-fluorophenyl]carbonyl}-L-aspartic acid], under setting [1], the half-inhibitory concentration (IC50) turned out to be 1.28 µM.

As to `COC(=O)[C@@H](NC(=O)c1cc(C(C)C)sc1NC(=O)Nc1c(Cl)cccc1Cl)C1CCCCC1` [Example 395, methyl(2S)-cyclohexyl({[2-({[(2,6-dichlorophenyl)amino]carbonyl}amino)-5-(1-methylethyl)-3-thienyl]carbonyl}amino)ethanoate], the concentration for half-maximal inhibition (IC50) under setting [2] was found to be 4.49 µM.

As to `CCc1cc(C)c(NC(=O)Nc2cc(F)ccc2C(=O)N[C@H](C(=O)O)C2CCCCC2)c(C)c1` [Example 475, (2S)-cyclohexyl({[2-({[(4-ethyl-2,6-dimethylphenyl)amino]carbonyl}amino)-4-fluorophenyl]carbonyl}amino)ethanoic acid], inhibition under setting [2] was half-maximal at 0.051 µM (IC50).

On to `COc1ccc(-c2cc(NC(=O)Nc3c(Cl)cccc3Cl)c(C(=O)O)s2)cc1` [Example 408, 3-({[(2,6-dichlorophenyl)amino]carbonyl}amino)-5-[4-(methyloxy)phenyl]-2-thiophenecarboxylic acid], for which the midpoint of inhibition under setting [2], the IC50, lay at 1.15 µM.

In the case of `Cc1cc(C)c(NC(=O)Nc2cc(-c3ccc(F)c(F)c3)ccc2C(=O)N[C@H](C(=O)O)[C@@H](C)OC2CCC2)c(C)c1` [Example 519, O-cyclobutyl-N-{[3′,4′-difluoro-3-({[(2,4,6-trimethylphenyl)amino]carbonyl}amino)-4-biphenylyl]carbonyl}-L-threonine], half-maximal inhibition under setting [2] (IC50) required 0.007 µM.

Under setting [2], `COc1ccc(-c2cc(NC(=O)Nc3c(C)cc(C)cc3C)c(C(=O)NC3(C(=O)O)CCC3)s2)cc1` [Example 450, 1-({[5-[4-(methyloxy)phenyl]-3-({[(2,4,6-trimethylphenyl)amino]carbonyl}amino)-2-thienyl]carbonyl}amino)cyclobutanecarboxylic acid] showed a half-maximal inhibitory concentration (IC50) of 0.25 µM.

On to `Cc1cc(C)c(NC(=O)Nc2cc(-c3ccc(F)c(F)c3)ccc2C(=O)N[C@H](C(=O)O)[C@@H](C)OC(C)(C)C)c(C)c1` [Example 373, N-{[3′,4′-difluoro-3-({[(2,4,6-trimethylphenyl)amino]carbonyl}amino)-4-biphenylyl]carbonyl}-O-(1,1-dimethylethyl)-L-threonine], for which, under setting [1], the IC50 came to 0.005 µM.

Turning to `CCOC(=O)C[C@H](NC(=O)c1ccc(-c2ccc(F)c(F)c2)cc1NC(=O)Nc1c(C)cc(C)cc1C)C(=O)O` [Example 374, (2S)-2-({[3′,4′-difluoro-3-({[(2,4,6-trimethylphenyl)amino]carbonyl}amino)-4-biphenylyl]carbonyl}amino)-4-(ethyloxy)-4-oxobutanoic acid], under setting [1], the IC50 came out at 0.82 µM.

Under setting [1], `Cc1cccc(C)c1NC(=O)Nc1cc2ccccc2cc1C(=O)N(CC(=O)O)CC(=O)O` [Example 246, 2,2′-({[3-({[(2,6-dimethylphenyl)amino]carbonyl}amino)-2-naphthalenyl]carbonyl}imino)diacetic acid] yielded an IC50 of 2.12 µM.

Molecule `CCCc1cc(C)c(NC(=O)Nc2cc(-c3ccc(F)c(F)c3)ccc2C(=O)N[C@H](C(=O)O)[C@@H](C)OC(C)(C)C)c(C)c1` [Example 481, O-(1,1-dimethylethyl)-N-{[3-({[(2,6-dimethyl-4-propylphenyl)amino]carbonyl}amino)-3′,4′-difluoro-4-biphenylyl]carbonyl}-L-threonine] returned a concentration for half-maximal inhibition (IC50) under setting [2] of 0.0004 µM.
